Measurements reported in ChEMBL document CHEMBL1201862, “PubChem BioAssay data set” (2004).
Calls of active or inactive are those of the source.

How the values were obtained:
H4 = assay: Luminescence Cell-Based Dose Response HTS to Identify Activators of 5'UTR Stem-Loop Driven Prion Protein mRNA Translation in H4 Neuroglioblastoma Cells. [Related pubchem assays: 1829 (Project Summary), 1814 (Primary HTS)]; assay type: functional; conditions: Homo sapiens
[1] = target: T1, Oxysterols receptor LXR-beta (Homo sapiens, UniProt P55055); assay type: functional, cell-based;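 also: Cell-based luminescence dose-response assay of agonist activity at LXR, run as a confirmatory counterscreen to a daf-12 agonist screen; HEK293 cells with Gal4-LXR fusion and GAL4-driven luciferase reporter; agonist potency from rising luciferase signal of a Gal4-LXR reporter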
T1 sequence (P55055 whole entry): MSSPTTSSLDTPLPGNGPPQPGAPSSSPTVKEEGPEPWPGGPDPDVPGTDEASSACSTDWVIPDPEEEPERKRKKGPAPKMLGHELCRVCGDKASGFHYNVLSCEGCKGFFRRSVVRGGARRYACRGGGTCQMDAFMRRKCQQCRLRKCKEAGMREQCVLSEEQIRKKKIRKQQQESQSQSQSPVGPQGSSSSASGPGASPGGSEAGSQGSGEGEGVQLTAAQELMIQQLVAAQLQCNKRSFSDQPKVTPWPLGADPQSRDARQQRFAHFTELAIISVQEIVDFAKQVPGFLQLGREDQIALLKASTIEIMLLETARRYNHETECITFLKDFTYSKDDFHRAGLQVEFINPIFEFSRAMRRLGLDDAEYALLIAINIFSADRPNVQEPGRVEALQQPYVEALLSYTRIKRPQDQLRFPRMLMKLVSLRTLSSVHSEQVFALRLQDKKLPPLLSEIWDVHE

[2] = P. falciparum Dd2 growth inhibitors, dose response, SYBR Green, dry powder samples, set 9 (AID 1159568); assay type: functional, cell-based
[3] = target: G-protein coupled receptor 183 (Homo sapiens, UniProt P32249); assay: SAR confirmation of small molecule antagonists of the EBI2 receptor via a luminescent beta-arrestin assa.; assay type: functional
Phospholipase D2 = Phospholipase D2 (Homo sapiens, UniProt O14939); assay: PLD2 Cellular Concentration Response Study.; assay type: functional
Phospholipase D1 = Phospholipase D1 (Homo sapiens, UniProt Q13393); assay: PLD1 Cellular Concentration Response Study.; assay type: functional
[4] = target: Peroxisome proliferator-activated receptor gamma/Nuclear receptor coactivator 1 (Homo sapiens, UniProt P37231); assay: (§1) TR-FRET dose response biochemical High Throughput Screening assay for agonists of the steroid receptor coactivator 1 (SRC-1) recruitment by the peroxisome proliferator-activated receptor gamma (PPAR gamma): non-selective agonists. [Related pubchem assays (depositor defined):AID1300, AID1808, AID504735, AID631]; assay type: protein assay
[5] = target: Peroxisome proliferator-activated receptor gamma/Nuclear receptor coactivator 3 (Homo sapiens, UniProt P37231); assay: as §1, with “3 (SRC-3)” for “1 (SRC-1)”, “assays: 1301 (Confirmation screen.), 1048 (Primary screen.)]” for “assays (depositor defined):AID1300, AID1808, AID504735, AID631]”; assay type: functional
[6] = target: Peroxisome proliferator-activated receptor gamma/Nuclear receptor coactivator 2 (Homo sapiens, UniProt P37231); assay: TR-FRET dose response biochemical High Throughput Screening assay for agonists of the steroid receptor coactivator 2 (SRC-2) recruitment by the peroxisome proliferator-activated receptor gamma (PPAR gamma): non-selective agonists. [Related pubchem assays: 1297, 1032 ]; assay type: functional
Nonstructural protein 1 = Nonstructural protein 1 (Influenza A virus, UniProt Q194T2); assay type: functional, Influenza A virus (A/California/07/2009(H1N1))
[7] = target: T2, Heat shock factor protein 1 (Mus musculus, UniProt P38532); assay: HSF1 potentiators in luciferase reporter cells, confirmation, cell-based, NIH3T3, luminescence, dose retest (AID 435004); assay type: functional;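 also: stress induced by proteasome inhibitor MG132 added 30 min after compound; luciferase reporter driven by HSF1 response element in NIH3T3 cells; actives raise luminescence as potentiators of the MG132 stress response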
T2 sequence (P38532 whole entry): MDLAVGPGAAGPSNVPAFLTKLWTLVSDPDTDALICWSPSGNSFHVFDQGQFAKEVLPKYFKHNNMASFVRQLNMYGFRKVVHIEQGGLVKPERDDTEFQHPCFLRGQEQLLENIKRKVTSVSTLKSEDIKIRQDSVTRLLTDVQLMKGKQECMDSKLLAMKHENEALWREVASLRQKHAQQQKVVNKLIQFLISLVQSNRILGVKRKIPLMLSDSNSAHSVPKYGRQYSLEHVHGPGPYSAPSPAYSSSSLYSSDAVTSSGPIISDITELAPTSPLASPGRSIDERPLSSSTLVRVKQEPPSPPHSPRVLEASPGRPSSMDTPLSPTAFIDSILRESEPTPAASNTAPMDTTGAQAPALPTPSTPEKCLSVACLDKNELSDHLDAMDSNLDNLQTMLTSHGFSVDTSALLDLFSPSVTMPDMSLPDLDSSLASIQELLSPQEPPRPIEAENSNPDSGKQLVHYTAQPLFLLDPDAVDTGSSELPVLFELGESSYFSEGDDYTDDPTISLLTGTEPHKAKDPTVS

[8] = target: SWI/SNF-related matrix-associated actin-dependent regulator of chromatin subfamily A member 2 (Homo sapiens, UniProt P51531); assay: Luminescence-based cell-based high throughput dose response assay to identify activators of the function of SWI/SNF related, matrix associated, actin dependent regulator of chromatin, subfamily a, member 2 (SMARCA2, BRM).; assay type: functional
[9] = Counterscreen for activators of the function of SWI/SNF related, matrix associated, actin dependent regulator of chromatin, subfamily a, member 2 (SMARCA2, BRM): Luminescence-based cell-based high throughput dose response assay to identify non-selective compounds using the VP16 reporter assay.; assay type: functional
Fibrinogen beta chain [10] = target: T3, Fibrinogen beta chain (Homo sapiens, UniProt P02675); assay: Fluorescence polarization-based biochemical high throughput dose response assay to identify inhibitors that disrupt the binding of a cyclic peptide (Tn6) to the fibrin proteolytic product D-Dimer and fragment E complex [DD(E )].
Fibrinogen beta chain [11] = target: T3, Fibrinogen beta chain; assay: Fluorescence polarization-based biochemical high throughput dose response assay to identify inhibitors that disrupt the binding of a cyclic peptide (Tn7) to the fibrin proteolytic product D-Dimer and fragment E complex [DD(E )].
[12] = Concentration-dependent survival of SW480 colon cancer line, luminescence detection with CellTiter-Glo, half-maximal inhibitory concentration (AID 1117338); assay type: functional
[13] = RKO cell viability reduction, dose response, CellTiter-Glo luminescence (AID 1117322); assay type: functional
[14] = cytotoxicity toward HCT116 cells – cell-based, CellTiter-Glo luminescence, IC50, dose response (AID 1117332); assay type: functional; conditions: HCT-116
[15] = SNU-C1 cell viability reduction, dose response, CellTiter-Glo luminescence (AID 1117323); assay type: functional, cell-based
[16] = cytotoxicity toward Colo320 cells – cell-based, CellTiter-Glo luminescence, IC50, dose response (AID 1117334); assay type: functional; conditions: COLO 320
[17] = cytotoxicity toward HT-29 cells – cell-based, CellTiter-Glo luminescence, IC50, dose response (AID 1117330); assay type: functional
[18] = CellTiter-Glo luminescent dose response of DLD-1 viability loss (AID 1117352); assay type: functional
[19] = HCT116 cell viability decrease, GSK3B pretreatment – CellTiter-Glo, IC50, dose response (AID 1117339); assay type: functional; conditions: HCT-116
[20] = HeLa 2N DNA content increase, dose response, cell-based, IC50 (AID 1117349); assay type: functional
[21] = HeLa 4N DNA content increase, dose response, cell-based, IC50 (AID 1117351); assay type: functional

T3 sequence (P02675 whole entry, the tested form may be a part): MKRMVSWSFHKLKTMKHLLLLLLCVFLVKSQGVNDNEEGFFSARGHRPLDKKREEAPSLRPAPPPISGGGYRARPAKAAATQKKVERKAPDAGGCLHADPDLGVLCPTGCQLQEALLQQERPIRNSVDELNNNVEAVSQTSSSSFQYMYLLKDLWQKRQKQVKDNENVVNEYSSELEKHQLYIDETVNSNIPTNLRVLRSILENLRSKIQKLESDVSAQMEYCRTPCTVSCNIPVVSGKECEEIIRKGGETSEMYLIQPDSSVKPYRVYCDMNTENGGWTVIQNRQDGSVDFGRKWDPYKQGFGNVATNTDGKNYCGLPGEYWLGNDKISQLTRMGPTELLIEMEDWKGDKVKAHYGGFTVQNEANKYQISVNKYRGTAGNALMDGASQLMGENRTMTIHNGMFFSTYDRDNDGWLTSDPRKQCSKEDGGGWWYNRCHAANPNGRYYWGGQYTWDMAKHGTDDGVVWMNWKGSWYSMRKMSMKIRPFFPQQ
Chain of SWI/SNF-related matrix-associated actin-dependent regulator of chromatin subfamily A member 2 (P51531 whole entry): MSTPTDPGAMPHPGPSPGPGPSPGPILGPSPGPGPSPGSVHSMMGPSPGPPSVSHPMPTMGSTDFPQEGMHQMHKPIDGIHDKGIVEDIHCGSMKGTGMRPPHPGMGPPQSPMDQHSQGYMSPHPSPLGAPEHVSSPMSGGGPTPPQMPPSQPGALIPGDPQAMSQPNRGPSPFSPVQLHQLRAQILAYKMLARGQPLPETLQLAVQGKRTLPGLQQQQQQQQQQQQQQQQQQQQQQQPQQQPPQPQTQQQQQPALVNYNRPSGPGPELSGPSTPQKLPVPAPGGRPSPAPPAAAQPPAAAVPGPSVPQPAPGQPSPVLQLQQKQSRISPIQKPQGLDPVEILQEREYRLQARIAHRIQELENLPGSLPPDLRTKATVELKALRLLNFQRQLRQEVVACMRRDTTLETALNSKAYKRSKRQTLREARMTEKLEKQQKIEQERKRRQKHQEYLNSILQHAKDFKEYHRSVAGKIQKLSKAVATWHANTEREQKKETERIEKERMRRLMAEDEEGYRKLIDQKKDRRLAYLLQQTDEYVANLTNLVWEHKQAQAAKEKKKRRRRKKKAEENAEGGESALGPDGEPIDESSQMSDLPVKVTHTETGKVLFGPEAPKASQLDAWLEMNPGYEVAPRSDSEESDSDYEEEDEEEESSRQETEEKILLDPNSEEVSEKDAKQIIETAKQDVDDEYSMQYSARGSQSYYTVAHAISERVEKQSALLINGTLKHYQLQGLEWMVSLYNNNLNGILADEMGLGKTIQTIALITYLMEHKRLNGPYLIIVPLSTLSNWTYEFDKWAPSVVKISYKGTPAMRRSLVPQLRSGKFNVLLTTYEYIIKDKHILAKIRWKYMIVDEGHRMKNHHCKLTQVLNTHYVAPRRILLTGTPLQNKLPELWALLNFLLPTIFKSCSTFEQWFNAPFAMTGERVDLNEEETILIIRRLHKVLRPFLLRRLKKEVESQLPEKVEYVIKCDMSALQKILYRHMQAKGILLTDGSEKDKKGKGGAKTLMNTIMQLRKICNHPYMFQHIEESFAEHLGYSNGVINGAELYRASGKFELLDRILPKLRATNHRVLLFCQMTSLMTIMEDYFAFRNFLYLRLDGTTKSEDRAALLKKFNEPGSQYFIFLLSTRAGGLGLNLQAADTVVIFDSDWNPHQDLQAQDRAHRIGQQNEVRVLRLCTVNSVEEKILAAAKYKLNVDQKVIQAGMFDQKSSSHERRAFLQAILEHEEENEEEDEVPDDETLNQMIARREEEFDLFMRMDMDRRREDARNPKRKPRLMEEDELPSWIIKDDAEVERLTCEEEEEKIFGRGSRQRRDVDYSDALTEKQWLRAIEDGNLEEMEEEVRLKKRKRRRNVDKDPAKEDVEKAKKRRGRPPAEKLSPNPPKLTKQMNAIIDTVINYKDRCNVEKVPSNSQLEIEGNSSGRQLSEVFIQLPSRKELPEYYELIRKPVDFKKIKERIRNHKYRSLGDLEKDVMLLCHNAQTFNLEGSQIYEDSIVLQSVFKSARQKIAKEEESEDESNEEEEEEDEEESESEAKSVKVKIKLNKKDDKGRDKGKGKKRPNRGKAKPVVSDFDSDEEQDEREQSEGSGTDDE
Chain of G-protein coupled receptor 183 (P32249 whole entry): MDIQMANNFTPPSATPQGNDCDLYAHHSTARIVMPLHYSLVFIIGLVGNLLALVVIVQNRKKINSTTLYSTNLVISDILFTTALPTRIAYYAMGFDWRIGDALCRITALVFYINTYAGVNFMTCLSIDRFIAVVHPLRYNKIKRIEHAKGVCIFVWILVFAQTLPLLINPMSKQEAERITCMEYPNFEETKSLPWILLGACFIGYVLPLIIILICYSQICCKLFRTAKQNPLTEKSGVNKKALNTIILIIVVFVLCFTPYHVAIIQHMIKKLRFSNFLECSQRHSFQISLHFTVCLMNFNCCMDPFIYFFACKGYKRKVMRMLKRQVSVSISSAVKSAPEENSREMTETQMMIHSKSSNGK
Chain of Phospholipase D1 (Q13393 whole entry): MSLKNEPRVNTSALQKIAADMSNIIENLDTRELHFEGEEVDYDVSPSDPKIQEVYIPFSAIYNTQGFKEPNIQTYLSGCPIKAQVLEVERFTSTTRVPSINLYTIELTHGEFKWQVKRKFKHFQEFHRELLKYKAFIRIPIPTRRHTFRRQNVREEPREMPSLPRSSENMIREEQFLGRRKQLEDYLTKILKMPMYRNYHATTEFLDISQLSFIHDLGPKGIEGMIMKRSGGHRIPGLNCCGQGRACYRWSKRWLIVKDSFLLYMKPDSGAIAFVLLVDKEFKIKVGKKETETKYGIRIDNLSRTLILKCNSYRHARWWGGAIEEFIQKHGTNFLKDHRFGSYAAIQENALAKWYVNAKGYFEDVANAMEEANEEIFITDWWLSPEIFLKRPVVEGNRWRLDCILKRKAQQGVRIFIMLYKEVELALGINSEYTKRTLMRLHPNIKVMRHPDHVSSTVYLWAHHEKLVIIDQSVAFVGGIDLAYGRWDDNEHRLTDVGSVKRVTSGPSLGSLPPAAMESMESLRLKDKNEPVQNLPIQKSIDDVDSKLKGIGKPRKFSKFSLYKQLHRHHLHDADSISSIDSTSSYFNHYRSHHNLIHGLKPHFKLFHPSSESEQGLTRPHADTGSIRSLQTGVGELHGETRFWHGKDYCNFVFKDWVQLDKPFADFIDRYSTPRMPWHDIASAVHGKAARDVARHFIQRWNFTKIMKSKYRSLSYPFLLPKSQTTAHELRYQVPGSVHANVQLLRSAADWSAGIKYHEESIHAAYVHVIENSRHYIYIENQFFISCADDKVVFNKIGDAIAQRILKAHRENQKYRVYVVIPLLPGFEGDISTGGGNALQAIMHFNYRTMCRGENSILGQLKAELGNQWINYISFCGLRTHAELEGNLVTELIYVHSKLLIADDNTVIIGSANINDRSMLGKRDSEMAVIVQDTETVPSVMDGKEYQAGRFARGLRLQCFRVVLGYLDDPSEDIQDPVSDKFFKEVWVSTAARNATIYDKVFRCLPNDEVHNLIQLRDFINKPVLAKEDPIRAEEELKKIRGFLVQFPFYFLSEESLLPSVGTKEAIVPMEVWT
Chain of Nonstructural protein 1 (Q194T2 whole entry): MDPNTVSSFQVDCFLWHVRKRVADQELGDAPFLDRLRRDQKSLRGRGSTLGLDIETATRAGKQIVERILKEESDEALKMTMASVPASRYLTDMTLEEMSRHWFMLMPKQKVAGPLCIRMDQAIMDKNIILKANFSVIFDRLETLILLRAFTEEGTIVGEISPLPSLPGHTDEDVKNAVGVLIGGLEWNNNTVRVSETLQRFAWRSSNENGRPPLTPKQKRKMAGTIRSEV
Chain of Phospholipase D2 (O14939 whole entry): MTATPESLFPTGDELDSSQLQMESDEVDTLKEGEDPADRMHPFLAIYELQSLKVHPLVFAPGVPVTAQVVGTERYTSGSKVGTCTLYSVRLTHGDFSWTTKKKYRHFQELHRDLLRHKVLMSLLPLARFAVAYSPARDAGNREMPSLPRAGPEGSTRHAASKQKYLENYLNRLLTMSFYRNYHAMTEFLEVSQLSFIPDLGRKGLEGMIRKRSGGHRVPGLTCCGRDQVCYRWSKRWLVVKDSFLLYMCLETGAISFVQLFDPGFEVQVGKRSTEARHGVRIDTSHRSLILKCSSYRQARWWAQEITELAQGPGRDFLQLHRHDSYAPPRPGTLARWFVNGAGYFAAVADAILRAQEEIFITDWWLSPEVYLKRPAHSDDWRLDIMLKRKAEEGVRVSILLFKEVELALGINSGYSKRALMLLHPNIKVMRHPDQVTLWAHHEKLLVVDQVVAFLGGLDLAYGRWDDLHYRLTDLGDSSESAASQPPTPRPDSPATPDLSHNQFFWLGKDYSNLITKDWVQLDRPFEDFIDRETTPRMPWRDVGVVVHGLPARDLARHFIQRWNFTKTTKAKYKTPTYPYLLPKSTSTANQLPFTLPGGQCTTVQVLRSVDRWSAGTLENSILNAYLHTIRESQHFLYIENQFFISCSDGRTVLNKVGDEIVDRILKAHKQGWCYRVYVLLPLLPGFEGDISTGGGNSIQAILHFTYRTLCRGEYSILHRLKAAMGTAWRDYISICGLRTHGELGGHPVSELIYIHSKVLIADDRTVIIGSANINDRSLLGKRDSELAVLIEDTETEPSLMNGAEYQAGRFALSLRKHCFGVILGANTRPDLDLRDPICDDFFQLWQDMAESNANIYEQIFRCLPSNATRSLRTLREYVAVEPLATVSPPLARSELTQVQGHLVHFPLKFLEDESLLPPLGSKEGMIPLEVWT

C/C(=N\Nc1nc2c(s1)CCCC2)c1ccccc1
EC50 (H4): 5.13 µM (active)
EC50 [1]: > 67.5 µM (inactive)
EC50 (cells): > 67.5 µM (inactive)

C[C@H](CO)N1C[C@H](C)[C@@H](CN(C)S(=O)(=O)c2ccc(F)cc2)OCCCC[C@H](C)Oc2ccc(N(C)C)cc2C1=O
AC50 [2]: 5.9 µM (active)

COc1ccc(S(=O)(=O)N2CCN(C(=O)/C=C/c3ccc(F)cc3)CC2)cc1
IC50 [3]: 0.0121 µM (active)

O=C(NCCN1CCC2(CC1)C(=O)NCN2C(=O)c1cccc(F)c1)c1ccc2ccccc2c1
IC50 (Phospholipase D2): 2.75 µM (active)
IC50 (Phospholipase D1): 8.76 µM (active)

COc1ccc(N)c2c1C(=O)c1ccccc1C2=O
EC50 [4]: 20.2 µM (inactive)
EC50 [5]: 119 µM (not active)
EC50 [6]: 10.7 µM (not active)
IC50 (Nonstructural protein 1): 31 µM (active)
EC50 [7]: > 260 µM (inactive)
EC50 [8]: > 91.1 µM (inactive)
EC50 [9]: > 91.1 µM (inactive)
IC50 (Fibrinogen beta chain [10]): 4.98 µM (active)
IC50 (Fibrinogen beta chain [11]): > 83.2 µM (inactive)

ClC1=C(Cl)C2(Cl)C(CBr)CC1(Cl)C2(Cl)Cl (stereo unspecified) [BROMOCICLEN]
IC50 [12]: > 20 µM (inactive)
IC50 [13]: > 20 µM (inactive)
IC50 [14]: > 20 µM (inactive)
IC50 [15]: > 20 µM (inactive)
IC50 [16]: > 20 µM (inactive)
IC50 [17]: > 20 µM (inactive)
IC50 [18]: > 20 µM (inactive)
IC50 [19]: > 20 µM (inactive)

C=C(C)[C@H]1Cc2c(ccc3c2O[C@@H]2COc4cc(OC)c(OC)cc4[C@@H]2C3=O)O1 [ROTENONE]
IC50 [20]: 0.311 µM (active)
IC50 [21]: 0.311 µM (active)
